From patent publication US20090270594A1, “USE OF THYMOSIN ALPHA 1 FOR THE PREPARATION OF A MEDICAMENT FOR THE PREVENTION AND TREATMENT OF ALLERGIES” (SIGMA-TAU INDUSTRIE FARMACEUTICHE, priority 2006, published 2009)
Where no end group is shown, it is not given here.

How the values were obtained:
[1] = tested on: mice with allergy from OVA; test: Allergy from OVA (chicken ovalbumin) model in mice; type: in vivo; details: FIG. 1B
Description: (§1) Evaluation of the efficacy of thymosin alpha 1 in two experimental models of allergy. A model consists of inducing an allergic state by administering chicken ovalbumin (OVA) in allergising conditions. The other consists of inducing the allergy from environmental allergens, and namely the spores of the fungus Aspergillus fumigatus.
The induction of the allergic pathology due to Aspergillus (called ABPA, Allergic Bronchopulmonary Aspergillosis) and to OVA was carried out as described in table 1 (Montagnoli C, Fallarino F, Gaziano R, Bozza S, Bellocchio S, Zelante T, Kurup W P, Pitzurra L, Puccetti P, Romani L. Immunity and tolerance to Aspergillus involve functionally distinct regulatory T cells and tryptophan catabolism. J. Immunol. 2006, 176:1712-1723). The mice received an intraperitoneal (i.p.) and subcutaneous (s.c.) injection of 5 μg of A. fumigatus culture filter (CCFA) dissolved in an incomplete Freund adjuvant (Sigma) followed by two consecutive intranasal injections (one week apart) of 20 μg CCFA. […] The mice were analysed for inflammation and allergy parameters a week later. […]
(§2) The collagen levels in the lungs were determined as described (Montagnoli C, Fallarino F, Gaziano R, Bozza S, Bellocchio S, Zelante T, Kurup WP, Pitzurra L, Puccetti P, Romani L. Immunity and tolerance to Aspergillus involve functionally distinct regulatory T cells and tryptophan catabolism. J. Immunol. 2006, 176:1712-1723). The concentrations of hydroxyproline were calculated by means of a standard hydroxyproline curve (zero to 100 μg/ml).
IgE determination in the serum. Total IgE in the serum samples was determined by enzyme-linked immunosorbent assay (Montagnoli C, Fallarino F, Gaziano R, Bozza S, Bellocchio S, Zelante T, Kurup WP, Ptzurra L, Puccetti P, Romani L. Immunity and tolerance to Aspergillus involve functionally distinct regulatory T cells and tryptophan catabolism. J. Immunol. 2006, 176:1712-1723 in the serum samples was measured by enzyme-linked immunosorbent assay). […]

[2] = tested on: mice with ABPA (allergy to Aspergillus fumigatus); test: Allergic Bronchopulmonary Aspergillosis (ABPA) allergy model in mice; type: in vivo
Description: as §1
The induction of the allergic pathology due to Aspergillus (called ABPA, Allergic Bronchopulmonary Aspergillosis) and to OVA was carried out as described in table 1 (Montagnoli C, Fallarino F, Gaziano R, Bozza S, Bellocchio S, Zelante T, Kurup W P, Pitzurra L, Puccetti P, Romani L. Immunity and tolerance to Aspergillus involve functionally distinct regulatory T cells and tryptophan catabolism. J. Immunol. 2006, 176:1712-1723). The mice received an intraperitoneal (i.p.) and subcutaneous (s.c.) injection of 5 μg of A. fumigatus culture filter (CCFA) dissolved in an incomplete Freund adjuvant (Sigma) followed by two consecutive intranasal injections (one week apart) of 20 μg CCFA. One week after the last intranasal contact, the mice received 10^7 Aspergillus conidia intratracheally (i.t.) […]. The mice received 10 μg of OVA via i.p./s.c. on day 0, followed by two consecutive intranasal injections (one week apart) of 10 μg of OVA (chicken OVA grade VI; Sigma-Aldrich) together with 1 mg of Al(OH)3 (Alum Inject; Pierce, Rockford, Ill.) as adjuvant dissolved in a sterile saline solution. The mice were analysed for inflammation and allergy parameters a week later. For the histological analysis, sections (from 3 to 4 μm) of tissues immersed in paraffin were coloured with periodical Schiff acid (PAS) to evaluate the general morphology. The lung sections coloured with PAS were examined at 50, 200 and 400 enlargements to assess the “Globet” type cells typical of the allergy.
The differential total and total lung cell counts were carried out by colouring the lung of allergic mice with May-Grünwald reagents (Giemsa Sigma) before the analysis.
as §2
IgE determination in the serum. Total IgE in the serum samples was determined by enzyme-linked immunosorbent assay (Montagnoli C, Fallarino F, Gaziano R, Bozza S, Bellocchio S, Zelante T, Kurup WP, Ptzurra L, Puccetti P, Romani L. Immunity and tolerance to Aspergillus involve functionally distinct regulatory T cells and tryptophan catabolism. J. Immunol. 2006, 176:1712-1723 in the serum samples was measured by enzyme-linked immunosorbent assay).
Treatment with thymosin alpha 1. Tα1 (purchased from Sigma, St. Louis, Mo., USA; product no. T3410; molecular formula C129H215N33O55) and the scrambled peptide were supplied as sterile dried powders. The powders were reconstituted in sterile water (endotoxin levels were <0.03 pg/ml, by means of standard Limulus lysate assay). Tα1 was administered at a dosage of 50 and 200 microgrammes/kg i.p. according to the design reported in tables 1 and 2, both in the ABPA model and in the allergy from OVA. Mice controls received the scrambled peptide. In selected experiments, the mice were treated for comparison with a known agent that could improve the allergic symptomatology: oligodeoxynucleotide, containing non-methylated CpG (CpG) sequences.

[3] = Tα1 200 microgrammes i.p., both prophylaxis and therapy, vs control mice
[4] = FIG. 1A, Tα1 200 microgrammes i.p., both prophylaxis and therapy, vs control mice

## thymosin alpha 1 (Ac-SDAAVDTSSEITTKDLKEKKEVVEEAEN; ends and bridges not checked; UniProt P06454 2-29, looked up) [Tα1, thymic peptide found in nature; purchased from Sigma, product no; T3410]
[1]; [3]
  IgE antibodies: drastic reduction
  local production of hydroxyproline: drastic reduction
[1]; lower dosages (50 microgrammes/kg i.p.)
  reduction in allergic inflammatory parameters (hydroxyproline, IgE) at lower dosages: not at lower dosages
[2]; [4]
  IgE antibodies: drastic reduction
  local production of hydroxyproline: drastic reduction
[2]; FIG. 1A, lower dosages (50 microgrammes/kg i.p.)
  reduction in allergic inflammatory parameters (hydroxyproline, IgE) at lower dosages: not at lower dosages
[2]; FIG. 2, both in prophylaxis and therapy
  efficacy in reducing the allergic inflammation parameters, Tα1 compared with CpG: comparable efficacy
[2]; FIG. 3
  recruitment of monocytes/macrophages (pulmonary): did not have any appreciable effects
  recruitment of neutrophils (pulmonary): did not have any appreciable effects
[2]; FIG. 3, both in prophylaxis and in therapy
  recruitment of eosinophils (pulmonary): drastic reduction
[2]; FIG. 4, histology (PAS)
  hyperplasia of submucose glandular (Globet) cells in pulmonary sections: decreased hyperplasia
[2]; FIG. 4, histology (PAS), prophylactic treatment
  inflammatory infiltrate in pulmonary sections: considerably reduced
